# Test results: patent US12496346B2, “Phospholipid-flavagline conjugates and methods of using the same for targeted cancer therapy” (Cellectar Biosciences, Inc., priority 2019, dated 2025)
# Where two headings read alike, the source gives them in different places.
# Tests used:
# [1] = tested on: A549 (human lung adenocarcinoma); assay: cells; type: cell-based
# in vitro [2] = conditions: mouse, plasma
# Procedure: (§1) A small amount of molecule was exposed to plasma, and the plasma was then analyzed via HPLC or MS to determine if the molecule was degraded.
# in vivo = type: in vivo, mice
# Procedure: Listed in Table 5 are the doses administered to the mice, and how many mice were alive after treatment (“3/3” indicates 3 out of 3 mice were alive). […] MTD for CLR 1865 was between 5 and 10 mg/kg.
# Plasma stability [3] = assay: Plasma stability
# Procedure: as §1
# [4] = tested on: HCT 116 cells (human colon cancer); type: in vivo; conditions: three doses of 1 mg/mg each, FIG. 9
# in vitro [5] = conditions: human, plasma
# Procedure: as §1
# Plasma stability [6] = conditions: species not given
# [7] = tested on: Colorectal (HCT-116) tumor; assay: In vivo imaging of targeted delivery; design: species or system nude mouse
# Procedure: Initial targeting noted within 30 minutes (not shown).
# A375 and A549 cells = assay: FLV3 levels in cell lysate and growth media by LC/MS; type: cell-based, human; conditions: after 24 hours, CLR 1852 and FLV3 alone administered
# Procedure: The levels of FLV3 in cell lysate and growth media were measured using LC/MS. […] Levels of intracellular FLV3 appeared to plateau at 24 hours, while extracellular levels of FLV3 continued to increase.
# [8] = tested on: HCT 116 (human colon cancer); assay: IC50 of PLE-flavagline conjugates in cell lines; type: cell-based; conditions: HCT-116, read-out: IC50 HCT 116
# [9] = tested on: A375 (human malignant melanoma); assay: IC50 of PLE-flavagline conjugates in cell lines; type: cell-based; conditions: A-375, read-out: IC50 A375
# [10] = tested on: NHDF (normal human dermal fibroblasts); assay: IC50 of PLE-flavagline conjugates in cell lines; type: cell-based; conditions: read-out: IC50 NHDF
smiles,measurement,setting,value
COC(=O)[C@H]1[C@@H](O)[C@@]2(O)c3c(OC)cc(OCCCCNC(=O)OCC(C)(C)SSCCCCCCCCCCCCCCCCCCOP(=O)([O-])OCC[N+](C)(C)C)cc3O[C@@]2(c2ccc(OC)cc2)[C@@H]1c1ccccc1 [CLR 1852],Therapeutic Index (TI),[1],360
same,"Therapeutic Index (TI), second value in parentheses","[1]; in vitro, from the NHDF value in parentheses",(915)
same,cytotoxic potency compared to FLV3 alone,"[1]; various concentrations, FIG. 8 (A549 and NHDF)",modest loss in potency
same,half-life,in vitro [2],> 400 min
same,mice alive after treatment,in vivo; Dose 0.1 mg/kg,3/3
same,mice alive after treatment,in vivo; Dose 0.25 mg/kg,3/3
same,mice alive after treatment,in vivo; Dose 0.5 mg/kg,3/3
same,mice alive after treatment,in vivo; Dose 1.0 mg/kg,3/3
same,mice alive after treatment,in vivo; Dose 5.0 mg/kg,3/3
same,mice alive after treatment,in vivo; Dose 10.0 mg/kg,3/3
same,maximum tolerated dose (MTD),in vivo; mice,did not achieve a maximum tolerated dose
same,tolerability compared to FLV3 alone,in vivo; mice,excellent improvement in tolerability
same,in vivo therapeutic index,"in vivo; mouse, in vivo",at least 25
same,human plasma stability,Plasma stability [3],excellent human plasma stability
same,tumor volume compared to vehicle,[4],reduced the tumor volume beginning at around 27 days
same,half-life,in vitro [5],> 400 min
same,time stable in plasma,Plasma stability [6],at least 7 hours
CN1/C(=C/C=C2\CCCC(/C=C/C3=[N+](C)c4ccccc4C3(C)C)=C2c2ccc(CCCCCCCCCCCCCCCCCCOP(=O)(O)OCC[N+](C)(C)C)cc2)C(C)(C)c2ccccc21 [CLR 1502],time to initial targeting,[7]; 1 mg injected,≤ 30 min
same,time to maximum distribution,"[7]; 1 mg injected, Pearl Infrared Imaging System",≤ 24 h
same,distribution in tumor,"[7]; approximately 5.5 hours post injection, 1 mg",the tumor still showed red color
COC(=O)[C@@H]1[C@H](O)[C@]2(O)c3c(OC)cc(OCCCCN)cc3O[C@]2(c2ccc(OC)cc2)[C@H]1c1ccccc1 [FLV3],IC50,"[1]; Homo sapiens, A549, read-out: IC50 A549",90 nM
same,Therapeutic Index (TI),"[1]; in vitro, NHDF IC50 relative to cancer cell IC50",0.89
same,mice alive after treatment,in vivo; Dose 0.1 mg/kg,3/3
same,mice alive after treatment,in vivo; Dose 0.25 mg/kg,3/3
same,levels of FLV3 in the cell lysate,A375 and A549 cells,high levels
same,levels of FLV3 in the growth media,A375 and A549 cells,Moderate levels
same,IC50,[8],9 nM
same,IC50,[9],15 nM
same,IC50,[10],8 nM
